According to patent publication US4988681A, “Phosphinic acid derivatives” (Banyu Pharmaceutical Co., Ltd., priority 1988, dated 1991):

How the values were obtained:
[1] = molecular target: T1, porcine kidney dehydropeptidase I (Sus scrofa, UniProt P22412); test: Inhibitory activity on porcine kidney dehydropeptidase I (DHP-I); format: biochemical; conditions: substrate glycyldehydrophenylalanine, pH 7.4, 37° C., 3 h pre-incubation; read-out: Concentration producing 50% inhibition (IC50)
T1 construct: Frozen porcine kidney cortex was homogenized; from tissue; host or cells: porcine kidney cortex
T1 sequence (P22412 17-409): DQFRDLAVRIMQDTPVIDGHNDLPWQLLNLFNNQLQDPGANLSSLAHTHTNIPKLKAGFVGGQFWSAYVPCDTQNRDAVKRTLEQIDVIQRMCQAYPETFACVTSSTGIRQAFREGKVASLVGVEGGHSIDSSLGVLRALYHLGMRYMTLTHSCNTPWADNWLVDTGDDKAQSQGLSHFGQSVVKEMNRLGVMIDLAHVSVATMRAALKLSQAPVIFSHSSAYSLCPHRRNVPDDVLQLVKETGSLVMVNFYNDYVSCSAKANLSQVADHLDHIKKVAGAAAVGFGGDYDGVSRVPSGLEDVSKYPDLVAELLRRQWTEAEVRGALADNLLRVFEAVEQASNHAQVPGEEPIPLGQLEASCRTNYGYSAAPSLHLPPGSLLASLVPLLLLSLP
Method: (1) Inhibitory activity on porcine kidney dehydropeptidase I
(i) Purification of porcine dehydropeptidase I
Frozen porcine kidney cortex was homogenized. Butanol (1/4 volume) pre-cooled in a dry ice-acetone bath was added to the homogenate, and the mixture was stirred at 4° C. for 43 hours. The mixture was then dialyzed for one day and centrifuged at 3,000 g for 30 minutes. To the resulting supernatant was added ammonium sulfate. A precipitate at the salt concentration range between 50 and 75% was collected to give a crude enzyme preparation which was re-dissolved in a 50 mM MOPS buffer containing 0.5 M NaCl. The solution was charged on a cilastatin affinity column. Elution with a 50 mM MOPS buffer containing 0.5 M NaCN gave a purified enzyme preparation.
(ii) Measurement of inhibitory activity
The resulting enzyme preparation (3 mU) and an inhibitor were pre-incubatedat 37° C. for 3 hours in 2.7 ml of a 50 mM MOPS buffer (pH 7.4), and then 2.475 ml of the mixture was transferred into a cuvette. As a substrate, 25 microliters of a 5 mM glycyldehydrophenylalanine solution in a 50 mM MOPS buffer (pH 7.4) was added to start an enzymic reaction. The reaction was carried out at 37° C. in a spectrophotometer fitted with a constant-emperature device, and a decrease of the absorbance at 275 nm during a period of 5 minutes was measured. […] An IC50 value was calculated from the percent inhibition data.
One unit (U) is defined as the amount of the enzyme which hydrolyzes 1 micromole of the substrate (glycyldehydrophenylalanine) per minute at a substrate concentration of 0.05 mM at 37° C. in a 50 mM MOPS buffer (pH 7.4).

[2] = Pharmacokinetic evaluation: plasma concentration in dogs; format: in vivo, Male beagle dogs; conditions: dog; for concentration at 0.5 h: 1/2 h; for concentration at 0.25 h: 1/4 h; for concentration at 5 min: 1/12 h; for AUC: trapezoidal rule
Method: Male beagle dogs (14 month-old) were divided into groups each having three animals. The compound No. 2 was administered intravenously to a first group in a dose of 10 mg/kg. The compound No. 2 was orally administered to a second group in a dose of 10 mg/kg. Then at the points of 1/12, 1/4, 1/2, 1, 2, 4, 6, 8, 24 and 48 hours after the administration, plasma samples were taken periodically from the cephalic vein, and the plasma concentrations of the compounds were measured by an enzyme assay using porcine DHP-I. The results are shown in Table 4-b. The area under the curve (AUC) of the plasma level was determined according to the trapezoidal rule.

[3] = Pharmacokinetic evaluation: plasma concentration in rats; format: in vivo, Male SD rats; conditions: plasma, rat; for AUC: trapezoidal rule; for concentration at 0.5 h: 1/2 h; for concentration at 0.25 h: 1/4 h; for concentration at 5 min: 1/12 h
Method: (4) Pharmacokinetic evaluations
Male SD rats ([…]) were divided into groups each consisting of three animals. […] Furthermore, cilastatin was intravenously administered to a 14th group as a control group.
Plasma samples were taken periodically from the carotid artery through a cannula inserted into it at the points of 1/12, 1/4, 1/2, 1, 2, 4, 6, 8 and 24 hours after the administration.
The area under the curve (AUC) of the plasma concentration was determined according to the trapezoidal rule.

[4] = Effect on urinary recovery of carbapenem (imipenem) in rats; format: in vivo, Male SD rats; conditions: urine up to 8 hours, n = 3
Method: (2) Effect on urinary recovery of carbapenem
Male SD rats (8 week-old) were grouped, three per group. Imipenem alone was intravenously administered in a dose of 10 mg/kg to a first group. […] For comparison, a combination of imipenem (10 mg/kg) and cilastatin (10 mg/kg) was intravenously administered to a fourth group.
The urinary recovery of imipenem was calculated.

[5] = tested on: nephrotoxicity induced by imipenem; test: Protective action on nephrotoxicity induced by imipenem in rabbits; format: in vivo, male Japanese white rabbits; conditions: compound 150 mg/kg + imipenem 150 mg/kg
Method: (3) Protective action on nephrotoxicity induced by carbapenem antibiotics
Twelve male Japanese white rabbits (18 week-old; body weight 3.19-3.54 kg) were divided into three groups each consisting of 4 animals. Imipenem alone was administered in a dose of 150 mg/kg to a first group. To a second group, a combination of imipenem (150 mg/kg) and the compound No. 2 (150 mg/kg) was administered. To a third group as a control, sterilized physiological saline was administered. In all cases, the administration was effected through the auricular vein. Forty-eight hours later, a blood sample was taken from each of the animals, and the BUN and creatinine values were measured. The kidneys of the rabbits were taken and examined histopathologically.

[6] = iv 10 mg/kg (cilastatin dose not given)

## CC(C)CP(=O)(O)C/C(=C\C1CCCCC1)C(=O)O [Compound No. 2, (Z)-3-cyclohexyl-2-(hydroxyisobutylphosphinoyl)methylpropenoic acid]
[1]
  IC50: 13 nM
[2]; iv 10 mg/kg
  concentration at 0.5 h: 52200 ng/mL
  concentration at 0.25 h: 71000 ng/mL
  concentration at 5 min: 87300 ng/mL
  concentration at 1 h: 40800 ng/mL
  concentration at 2 h: 24500 ng/mL
  concentration at 4 h: 6700 ng/mL
  concentration at 6 h: 2400 ng/mL
  concentration at 8 h: 1200 ng/mL
  concentration at 24 h: 100 ng/mL
  AUC: 144000 ng·h/mL
[2]; po 10 mg/kg
  concentration at 0.5 h: 5800 ng/mL
  concentration at 0.25 h: 3000 ng/mL
  concentration at 5 min: 500 ng/mL
  concentration at 1 h: 9600 ng/mL
  concentration at 2 h: 7800 ng/mL
  concentration at 4 h: 3100 ng/mL
  concentration at 6 h: 1600 ng/mL
  concentration at 8 h: 700 ng/mL
  concentration at 24 h: 700 ng/mL
  AUC: 51500 ng·h/mL
[3]; [6]
  AUC: 162000 ng·h/mL
  concentration at 0.5 h: 53700 ng/mL
  concentration at 0.25 h: 60700 ng/mL
  concentration at 5 min: 84900 ng/mL
[3]; po 10 mg/kg
  AUC: 24300 ng·h/mL
  concentration at 0.5 h: 6800 ng/mL
  concentration at 0.25 h: 6600 ng/mL
  concentration at 5 min: 3300 ng/mL
  concentration at 1 h: 5400 ng/mL
  concentration at 2 h: 3800 ng/mL
  concentration at 4 h: 2100 ng/mL
  concentration at 6 h: 1200 ng/mL
[3]; iv 10 mg/kg (cilastatin dose not given), N.D.: below the detection limit
  concentration at 1 h: 42400 ng/mL
[3]; iv 10 mg/kg
  concentration at 2 h: 21800 ng/mL
  concentration at 4 h: 10500 ng/mL
  concentration at 8 h: 2500 ng/mL
[3]; iv 10 mg/kg, N.D.: below the detection limit
  concentration at 6 h: 5400 ng/mL
[3]; po 10 mg/kg, N.D.: below the detection limit
  concentration at 8 h: 400 ng/mL
[4]; inhibitor 10 mg/kg iv with imipenem 10 mg/kg iv
  Urinary recovery of imipenem, Mean ± S.D.: 95.3 ± 6.1%
[4]; inhibitor 10 mg/kg po 30 minutes before imipenem 10 mg/kg iv
  Urinary recovery of imipenem, Mean ± S.D.: 52.1 ± 4.9%
[5]
  Necrosis of the kidney tissue, number of rabbits which necrotized versus number tested: 0/4
[5]; auricular vein, 48 hours
  BUN: 16.2 mg/100 ml
  Creatinine: 1.49 mg/dL
[5]; grade in words
  Necrosis of the kidney tissue: None
